Measurements as given in patent US20110003772A1, “USE OF SPHINGOLIPIDS IN THE TREATMENT OF TYPE 2 DIABETES MELLITUS, INSULIN RESISTANCE AND METABOLIC SYNDROME” (priority 2004, published 2011).

Key:
3T3-L1 adipocytes = details: literature, Mei et al., 2002; cited from earlier work
PPAR-α = molecular target: T1, PPAR-α (Homo sapiens, UniProt Q07869); details: literature, Van Veldhoven et al., 2000; cited from earlier work
T1 sequence (Q07869 1-468): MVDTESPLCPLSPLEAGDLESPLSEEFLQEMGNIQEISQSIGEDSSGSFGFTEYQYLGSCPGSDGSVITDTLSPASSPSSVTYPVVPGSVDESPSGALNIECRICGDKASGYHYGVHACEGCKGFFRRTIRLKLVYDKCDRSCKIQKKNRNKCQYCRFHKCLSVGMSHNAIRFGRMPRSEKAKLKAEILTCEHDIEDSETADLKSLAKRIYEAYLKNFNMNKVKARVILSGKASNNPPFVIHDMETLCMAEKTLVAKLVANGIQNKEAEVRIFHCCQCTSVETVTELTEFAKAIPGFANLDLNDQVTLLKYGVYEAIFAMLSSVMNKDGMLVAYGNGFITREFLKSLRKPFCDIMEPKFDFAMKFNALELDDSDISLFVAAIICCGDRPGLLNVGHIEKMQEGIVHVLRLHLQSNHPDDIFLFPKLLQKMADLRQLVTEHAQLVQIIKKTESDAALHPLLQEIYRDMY

female ob/ob mice [1] = experiment: Plasma parameters and body weight in 4 h fasted ob/ob mice fed chow or chow with 1% phytosphingosine; format: in vivo; details: for Body weight: mean ± SD of 10 mice; for Glucose (plasma) / Insulin (plasma): 4 h fasted, mean ± SD
Description: 20 female ob/ob mice (C57B1/6 background) were obtained from Charles River, The Netherlands and were acclimatized for a period of 2 weeks within the TNO-facilities. After a 4 hour fast, blood was drawn by tail bleeding and the animals were randomized according to body weight and plasma glucose levels. […] The mice were put on a regular chow diet (control) or regular chow supplemented with 1% phytosphingosine (1% PS). After three weeks of treatment a blood sample was drawn after a 4 hours fast and body weight was determined. […] The 1% PS treated mice maintained their initial body weight. […] We observed no differences in insulin levels between the groups.

female ob/ob mice [2] = experiment: Hyperinsulinemic euglycemic clamp analysis in overnight fasted ob/ob mice; format: in vivo; details: 1% PS diet; for Glucose (plasma) during clamp: overnight fasted
Description: (§1) The “gold standard” for insulin resistance is a test called the hyperinsulinemic euglycemic clamp study. It is a complicated and expensive study in which insulin and glucose is infused intravenously at several different doses to see what levels of insulin control different levels of glucose. Essentially, the method of Koopmans et al., 2001 and Voshol et al., 2001.
(§2) All mice were fasted overnight and anaesthetised by intraperitoneal injection of Hypnorm® (fentanyl-fluanisone) (0.5 ml/kg body weight) and midazolam (12.5 mg/kg body weight). Mice were kept anaesthetised by administering 50 μl of Hypnorm®/midazolam subcutaneous every 45 minutes.
(§3) A needle filled with PBS was inserted into the tail vein and was connected to two pumps (Model 100 series, KdScienticic, PA, USA): one with an insulin solution consisting of 3057 μl PBS, 400 μl citrate (30 μg/μl) and 543 μl insulin (1 U/ml), and one pump with a solution of 6.25 g D-glucose in 50 ml PBS. Before the infusion with the two solutions was started, a capillary of blood was drawn from the tail tip. Subsequently a bolus of 30 μl of insulin was given and the pumps were started (50 μl/h). The mice were given rest for 30 minutes. Then every 10 minutes the glucose level was measured with a glucose handmeter (Freestyle, Disetronic Medical Systems AG, Burgdorf, Germany) and the glucose infusion rate was adjusted until the glucose concentration in the blood was constant for at least 20 minutes and a capillary of blood was drawn.
(§4) The insulin and glucose levels in the capillaries were measured using a standard commercial kit, according to the manufacturer's instructions (Hexokinase method, Instruchemie); and insulin levels were measured by Ultrasensitive mouse insulin ELISA, enzyme immunoassay according to the manufacturer's instructions (Mercodia, Sweden)
1.5 weeks after the last blood sample (necessary for full recovery of the mice) the ob/ob mice were fasted overnight and subjected to a hyperinsulinemic euglycemic clamp analysis. […]

[3] = tested on: insulin resistant mice (male ApoE3*Leiden mice); experiment: Hyperinsulinemic euglycemic clamp in insulin resistant mice on high fat, high fructose diet; format: in vivo; details: 0.3% (w/w) in high fat, compared to control group
Excerpt: as §1
Male ApoE3*Leiden mice were fed with a high fat, high fructose diet (24% casein, 17% corn starch, 14% cellulose, 1% cholesterol, 24% bovine lard, 20% fructose; all w/w). After 8 weeks all mice in this group were moderately insulin resistant and were strongly insulin resistant after 18 weeks. Two parallel groups of mice (n=8) were fed for another 10 weeks the same diet, but containing 0.3% (w/w of the dry food) of either egg sphingomyelin or phytosphingosine.
In another parallel experiment, three groups of 8 mice each were fed the same high fat, high fructose diet for 18 weeks. One group received 0.3% egg sphingomyelin during the whole period, one group received 0.3% phytosphingosine during the whole period and the last group served as the control group (i.e. received no additional sphingolipid).
as §2, §3, §4

[4] = T = 0 (starting point, before treatment), 1% PS group
[5] = T = 3 (3 weeks of chow with 1% PS)
[6] = high fructose diet during the last 10 weeks of the 18 week experiment
[7] = high fructose diet during whole 18 weeks

For `CCCCCCCCCCCCC/C=C/[C@@H](O)[C@H](CO)NC(C)=O` [C2-ceramide], the “antilipolytic action of insulin” value (3T3-L1 adipocytes) is given as “decrease the antilipolytic action of insulin” and the lipolysis (3T3-L1 adipocytes) is given as “stimulate lipolysis”.
For `CCCCCCCCCCCCC/C=C/[C@@H](O)[C@H](CO)NC(C)=O` [N-acetyl-sphingenine], the “binding to the PPAR-α receptor” value (PPAR-α) is given as “not able to bind”.
For `CCCCCCCCCCCCC/C=C/[C@@H](O)[C@H](CO)NC(=O)CCCCCCCCCCCCCCC` [N-hexadecanoyl-sphingenine], the “binding to the PPAR-α receptor” value (PPAR-α) is given as “not able to bind”.
With `CCCCCCCCCCCCCC[C@@H](O)[C@@H](O)[C@@H](N)CO` [phytosphingosine] the Body weight (female ob/ob mice [1]; [4]) was 42.2 ± 4.6 g, the “Glucose (plasma)” value (female ob/ob mice [1]; [4]) was 23.9 ± 5.1 mmol/L and the “Insulin (plasma)” value (female ob/ob mice [1]; [4]) was 25.8 ± 14.1 ng/mL. The “Insulin (plasma)” value (female ob/ob mice [1]; [5]) was 22.3 ± 6.8 ng/mL, the “Glucose (plasma)” value (female ob/ob mice [1]; T = 3 (3 weeks of chow with 1% PS), P < 0.01 vs. control) was 26.0 ± 7.0 mmol/L and the Body weight (female ob/ob mice [1]; [5]) was 41.7 ± 3.7 g. The “glucose infusion rate (GIR)” value (female ob/ob mice [2]; vs. 46±8 in control ob/ob mice, P=0.001) was 75 ± 16 µL/kg/min, the “Glucose (plasma) during clamp” value (female ob/ob mice [2]; Basal period (no insulin added)) was 7.3 ± 2.4 mmol/L and the “Glucose (plasma) during clamp” value (female ob/ob mice [2]; Hyperinsulinemic period) was 4.8 ± 1.3 mmol/L. The “infusion rate of glucose, percentage of the infusion rate in strongly insulin resistant control mice” value [3, 6] was 114% and the “infusion rate of glucose, percentage of the infusion rate in strongly insulin resistant control mice” value [3, 7] was 102%.
In the case of `CCCCCCCCCCCCCCC[C@@H](O)[C@@H](N)COP(=O)(O)O` [sphinganine-1-phosphate], the “binding to the PPAR-α receptor” value (PPAR-α) is given as “not able to bind”.
In the case of `CCCCCCCCCCCCCCC[C@@H](O)[C@@H](N)CO` [sphinganine], the “binding to the PPAR-α receptor” value (PPAR-α) is given as “strong binding ligands”.
In the case of `CCCCCCCCCCCCC/C=C/[C@@H](O)[C@@H](N)CO` [sphingenine], the “binding to the PPAR-α receptor” value (PPAR-α) is given as “strong binding ligands”.
In the case of ceramide, the “binding to the PPAR-α receptor” value (PPAR-α) is given as “not able to bind”.
For phosphatidylcholine, the “binding to the PPAR-α receptor” value (PPAR-α) is given as “not able to bind”.
In the case of sphingomyelin, the “binding to the PPAR-α receptor” value (PPAR-α) is given as “not able to bind”, the “infusion rate of glucose, percentage of the infusion rate in strongly insulin resistant control mice” value [3, 6] is given as 102% and the “infusion rate of glucose, percentage of the infusion rate in strongly insulin resistant control mice” value [3, 7] is given as 117%.
